Experimental findings from patent publication US7790749B2, “Use of pleuromutilins for the treatment of disorders caused by Helicobacter pylori” (Nabriva Therapeutics AG, priority 2002, dated 2010) are described below.

In brackets after ≈: the same amount, converted by molar mass. Where two headings read alike, the source gives them in different places.

Common to all, as to assay type: cell-based
The test system of one experiment is H.pylori ATCC 43629. In words: Agar Dilution Method, MIC against H.pylori ATCC 43629. Particulars: Helicobacter pylori, ATCC43629, 72 h, read-out: minimum inhibitory concentrations (MIC). As to the method:
(§1) Activity against strains of Helicobacter pylori is determined according to the Agar Dilution Method, using Mueller Hinton agar, supplementet with >2 week old horse blood (5% v/v), incubation at 35° C. for 3 days in a gas system-generated microaerobic atmosphere according to NCCLS recommendations, such as disclosed e.g. in “Methods for dilution antimicrobial susceptibility tests for bacteria that grow aerobically ”—Fourth edition; approved standard. M7-A4 Vol. 17 No. 2 (1997) and M100-S9 Vol. 19 No. 1 (1999).
(§2) Activity of TEST COMPOUNDS (TCs) against H.pylori strains ATCC 43504, 43526, 43629, 49503 and 51652 is determined according to the Agar Dilution Method, using Mueller Hinton agar, supplementet with >2 week old horse blood (5% v/v), incubation at 35° C. for 3 days in a gas system-generated microaerobic atmosphere according to NCCLS recommendations, such as disclosed in “Methods for dilution antimicrobial susceptibility tests for bacteria that grow aerobically “—Fourth edition; approved standard. M7-A4 Vol. 17 No. 2 (1997) and M100-S9 Vol. 19 No. 1(1999).
(Agar dilution tests growth on a series of plates holding different concentrations.)

In a further experiment the test system is H.pylori ATCC 43504. Nature of the experiment: Agar Dilution Method, MIC against H.pylori ATCC 43504. Particulars: Helicobacter pylori, ATCC43504, 72 h, read-out: minimum inhibitory concentrations (MIC). As to the method:
as §1, §2

Another experiment concerns H.pylori ATCC 49503. Nature of the experiment: Agar Dilution Method, MIC against H.pylori ATCC 49503. Particulars: Helicobacter pylori, ATCC49503, 72 h, read-out: minimum inhibitory concentrations (MIC). On the procedure: as §1, §2
The next experiment has as its system H.pylori ATCC 51652. Nature of the experiment: Agar Dilution Method, MIC against H.pylori ATCC 51652. Particulars: Helicobacter pylori, ATCC51652, 72 h, read-out: minimum inhibitory concentrations (MIC). As to the method: as §1, §2
A further experiment concerns H.pylori ATCC 43526. In words: Agar Dilution Method, MIC against H.pylori ATCC 43526. Particulars: Helicobacter pylori, ATCC43526, 72 h, read-out: minimum inhibitory concentrations (MIC). As to the method: as §1, §2
Where [1] appears, read: H.pylori/43629, Mueller Hinton agar, 5% horse blood, 35° C., 3 days, microaerobic.
Where [2] appears, read: H.pylori/43504, Mueller Hinton agar, 5% horse blood, 35° C., 3 days, microaerobic.
The mark [3] stands for this setting: H.pylori/49503, Mueller Hinton agar, 5% horse blood, 35° C., 3 days, microaerobic.
[4] abbreviates: H.pylori/51652, Mueller Hinton agar, 5% horse blood, 35° C., 3 days, microaerobic.
[5] abbreviates: H.pylori/43526, Mueller Hinton agar, 5% horse blood, 35° C., 3 days, microaerobic.

Consider `CN(C)[C@@H]1C(O)=C(C(N)=O)C(=O)[C@@]2(O)C(O)=C3C(=O)c4c(O)cccc4[C@@](C)(O)[C@H]3C[C@@H]12` [TEC, tetracycline], for which the MIC with H.pylori ATCC 43629 amounted to 0.4 µg/mL (≈ 0.9 µM); in the experiment on H.pylori ATCC 43504, 0.4 µg/mL (≈ 0.9 µM); with H.pylori ATCC 49503, 0.2 µg/mL (≈ 0.45 µM); in the experiment with H.pylori ATCC 51652 it was 0.2 µg/mL (≈ 0.45 µM); in the experiment on H.pylori ATCC 43526 it was 0.4 µg/mL (≈ 0.9 µM).
Consider `C=C[C@]1(C)C[C@@H](OC(=O)CSc2cccc(NC(=O)[C@@H]3CCCCN3)c2)[C@]2(C)C(C)CCC3(CCC(=O)C32)[C@@H](C)C1O` (some centres unmarked) [TC-II], for which the MIC with H.pylori ATCC 43629 (setting [1]) was < 0.0125 µg/mL; in the experiment on H.pylori ATCC 43504 (setting [2]), < 0.0125 µg/mL; in the experiment on H.pylori ATCC 49503 (setting [3]) it was 0.025 µg/mL (≈ 0.0419 µM); in the experiment with H.pylori ATCC 51652 (setting [4]) it was 0.025 µg/mL (≈ 0.0419 µM); in the experiment with H.pylori ATCC 43526 (setting [5]), 0.05 µg/mL (≈ 0.0838 µM).
With `C=C[C@]1(C)C[C@@H](OC(=O)CSC2CCCN(C(=O)C(N)C(C)C)C2)[C@]2(C)C(C)CCC3(CCC(=O)C32)[C@@H](C)C1O` (some centres unmarked) [TC-III], the MIC in the experiment with H.pylori ATCC 43629 (setting [1]) is < 0.0125 µg/mL; with H.pylori ATCC 43504 (setting [2]), 0.025 µg/mL (≈ 0.0433 µM); in the experiment on H.pylori ATCC 49503 (setting [3]), 0.025 µg/mL (≈ 0.0433 µM); in the experiment on H.pylori ATCC 51652 (setting [4]) it was 0.025 µg/mL (≈ 0.0433 µM); in the experiment on H.pylori ATCC 43526 (setting [5]), 0.05 µg/mL (≈ 0.0867 µM).
On to `C=C[C@]1(C)C[C@@H](OC(=O)CSC(C)(C)CNC(=O)[C@H](N)C(C)C)[C@]2(C)[C@H](C)CC[C@]3(CCC(=O)[C@H]32)[C@@H](C)[C@@H]1O` [TC-I, Valnemulin], for which the MIC was < 0.0125 µg/mL with H.pylori ATCC 43629 (setting [1]); 0.025 µg/mL (≈ 0.0443 µM) in the experiment with H.pylori ATCC 43504 (setting [2]); < 0.0125 µg/mL in the experiment on H.pylori ATCC 49503 (setting [3]); 0.025 µg/mL (≈ 0.0443 µM) in the experiment with H.pylori ATCC 51652 (setting [4]); 0.05 µg/mL (≈ 0.0885 µM) in the experiment on H.pylori ATCC 43526 (setting [5]).
